What was measured:
[1] = Stability in buffered solutions at pH 2.25, 2.5, 3.0 and 3.5, RP-HPLC purity and degradants (Example 6)
Description: In this study, the stability of a liquid formulation of AMG 416 under low pH conditions was investigated. Succinate-buffered saline (10 mM, pH 3.5) was prepared by dissolving 59 mg of succinic acid in 45 ml of lab processed (deionized) water and adjusting the pH to 3.5 using 1N HCl and 1N NaOH as needed, and q.s. to 50 ml. In the same way, a 10 mM, pH 3.5 sodium lactate (56 mg/50 mL) buffer solution was prepared.
NaCl (90 mg) was added to one portion and mannitol (500 mg) was added to the other. Each 10 mL portion was split again into two equal 5 mL portions and the pH was adjusted to 2.25 and 3.5, respectively, with 1N HCl and 1N NaOH. In the same way, four 5 mL solutions were prepared using lactate buffer. 1.0 mL of each of the (eight) resulting solutions was added to 3 serum sample vials. In addition, the remaining pH 2.25, succinate-buffered AMG 416 solution containing NaCl was adjusted to pH 2.5 and 0.5 mL aliquots were added to 3 serum sample vials and the remaining pH 3.5 succinate buffered solution with NaCl was adjusted to pH 3.0 and 0.5 mL aliquots were added to 3 serum sample vials.
At each time point (0, 2, 8, 12 and 24 weeks) all 30 samples were retrieved from storage, equilibrated to room temperature (about 25° C.), and a 100 μL aliquot was diluted to 0.5 mg/mL with water for RP-HPLC analysis. […]

[2] = Solution stability in different buffers (acetate, citrate, lactate, succinate), HPLC (Example 5); type: physicochemical; settings: all buffers tested
Description: In this study, the stability of liquid formulations of AMG 416 was evaluated in four different buffers over 9 days. Buffered saline solutions were prepared at 25 mM concentration, pH 4.5, for four different anionic buffers in the sodium salt form: acetate, citrate, lactate and succinate. […] The solutions were diluted further with pH 4.5 buffer to 1.0 mg/mL and 0.25 mg/mL. Each of the resulting solutions was split to two glass HPLC vials, one stored at 2-8° C. and one at room temperature (about 25° C.). HPLC analysis was conducted at 0, 4 and 9 days for determination of potency and purity.

For CC(=O)N[C@H](CSSC[C@H](N)C(=O)O)C(=O)N[C@H](C)C(=O)N[C@H](CCCNC(=N)N)C(=O)N[C@H](CCCNC(=N)N)C(=O)N[C@H](CCCNC(=N)N)C(=O)N[C@H](C)C(=O)N[C@H](CCCNC(=N)N)C(N)=O [AMG 416, N-acetyl-D-cysteinyl-D-alanyl-D-arginyl-D-arginyl-D-arginyl-D-alanyl-D-arginamide disulfide with L-cysteine], the “pH of maximal stability” value ([1]; 5 mg/mL solutions, Example 6) was 3.0±0.5, the “predicted total degradation over 2 years under refrigerated conditions” value ([1]; liquid formulations at pH 3.0) was 2-4% and the “stability during the 9 day study” value [2] was “good stability”.

— patent US11959486B2, “Stable liquid formulation of AMG 416 (etelcalcetide)” (AMGEN INC., priority 2013, dated 2024)
